Assays:
Assay in all cases: relative viability (nuclei count vs DMSO), 5 days (fraction); higher = more cells survive
CX-5461 + Linsitinib = compound: Cc1cnc(CNC(=O)c2c(=O)c3ccc(N4CCCN(C)CC4)nc3n3c2sc2ccccc23)cn1 [CX-5461] + C[C@]1(O)C[C@@H](c2nc(-c3ccc4ccc(-c5ccccc5)nc4c3)c3c(N)nccn32)C1 [Linsitinib] (partner 1 µM)
How it was run: (§1)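 Lung cancer cell lines in 1536-well plates were dosed by pin tool the day after seeding, either with one drug alone or with a fixed anchor-drug dose plus five library-drug doses (not always all listed) in √10 steps. After 5 days, cells were fixed and their nuclei stained in one step (final 0.05% Triton X-100, 1% formaldehyde, 1 ug/ml Hoechst), then counted on 4× images. Relative viability is the nuclei count in treated wells divided by that in vehicle wells. Values are medians of duplicate plates.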

CX-5461 + Crizotinib = compound: Cc1cnc(CNC(=O)c2c(=O)c3ccc(N4CCCN(C)CC4)nc3n3c2sc2ccccc23)cn1 [CX-5461] + C[C@@H](Oc1cc(-c2cnn(C3CCNCC3)c2)cnc1N)c1c(Cl)ccc(F)c1Cl [Crizotinib] (partner 1 µM)
How it was run: as §1

IMD-0354 + Pictilisib = compound: O=C(Nc1cc(C(F)(F)F)cc(C(F)(F)F)c1)c1cc(Cl)ccc1O [IMD-0354] + CS(=O)(=O)N1CCN(Cc2cc3nc(-c4cccc5[nH]ncc45)nc(N4CCOCC4)c3s2)CC1 [Pictilisib] (partner 1 µM)
How it was run: as §1

CX-5461 + Foretinib = compound: Cc1cnc(CNC(=O)c2c(=O)c3ccc(N4CCCN(C)CC4)nc3n3c2sc2ccccc23)cn1 [CX-5461] + COc1cc2c(Oc3ccc(NC(=O)C4(C(=O)Nc5ccc(F)cc5)CC4)cc3F)ccnc2cc1OCCCN1CCOCC1 [Foretinib] (partner 0.25 µM)
How it was run: as §1

| Cell Line | relative viability (CX-5461 + Linsitinib; first compound 0.01 µM) | relative viability (CX-5461 + Linsitinib; first compound 0.03162 µM) | relative viability (CX-5461 + Linsitinib; first compound 0.1 µM) | relative viability (CX-5461 + Linsitinib; first compound 0.3162 µM) | relative viability (CX-5461 + Linsitinib; first compound 1 µM) | relative viability (CX-5461 + Crizotinib; first compound 0.01 µM) | relative viability (CX-5461 + Crizotinib; first compound 0.03162 µM) | relative viability (CX-5461 + Crizotinib; first compound 0.1 µM) | relative viability (CX-5461 + Crizotinib; first compound 0.3162 µM) | relative viability (CX-5461 + Crizotinib; first compound 1 µM) | relative viability (IMD-0354 + Pictilisib; first compound 0.1265 µM) | relative viability (IMD-0354 + Pictilisib; first compound 0.4 µM) | relative viability (IMD-0354 + Pictilisib; first compound 1.265 µM) | relative viability (IMD-0354 + Pictilisib; first compound 4 µM) | relative viability (CX-5461 + Foretinib; first compound 0.01 µM) | relative viability (CX-5461 + Foretinib; first compound 0.03162 µM) | relative viability (CX-5461 + Foretinib; first compound 0.1 µM) | relative viability (CX-5461 + Foretinib; first compound 0.3162 µM) | relative viability (CX-5461 + Foretinib; first compound 1 µM) | relative viability (IMD-0354 + Pictilisib; first compound 0.04 µM) |
| --- | --- | --- | --- | --- | --- | --- | --- | --- | --- | --- | --- | --- | --- | --- | --- | --- | --- | --- | --- | --- |
| IA-LM | 0.644 | 0.863 | 0.852 | 0.688 | 0.415 | 0.968 | 0.813 | 0.821 | 0.836 | 0.33 | 0.377 | 0.216 | 0.0793 | 0.112 | 1.21 | 1.12 | 1.14 | 1.07 | 0.885 | – |
| NCI-H3122 | 0.99 | 1.05 | 0.994 | 1.1 | 0.973 | 0.299 | 0.267 | 0.284 | 0.255 | 0.282 | 0.554 | 0.527 | 0.174 | 0.173 | 0.915 | 0.906 | 0.941 | 0.929 | 0.974 | 0.737 |
| HCC-827 | 0.901 | 1.01 | 0.999 | 0.946 | 0.957 | 0.876 | 0.877 | 0.905 | 0.866 | 0.846 | 0.795 | 0.691 | 0.66 | 0.337 | 1.08 | 1.09 | 1.02 | 1.03 | 1.06 | 1.03 |
| SW 1573 | 0.782 | 0.84 | 0.977 | 0.828 | 0.907 | 0.806 | 0.817 | 0.889 | 0.633 | 0.657 | 0.468 | 0.263 | 0.418 | 0.137 | 0.887 | 0.83 | 0.98 | 0.397 | 0.531 | 0.577 |
| NCI-H1975 | 1.06 | 0.983 | 0.784 | 1 | 0.629 | 1.13 | 0.986 | 0.821 | 1.08 | 0.462 | 0.316 | 0.26 | 0.155 | 0.137 | 0.971 | 0.896 | 1.03 | 0.981 | 0.521 | 0.329 |
| NCI-H1703 | 0.374 | 1.22 | 0.898 | 0.223 | 0.423 | 0.783 | 0.852 | 0.77 | 0.663 | 0.343 | 0.241 | 0.235 | 0.157 | 0.123 | 0.359 | 0.311 | 0.357 | 0.363 | 0.28 | 0.273 |
| NCI-H1651 | – | 0.755 | – | 0.714 | 0.11 | 0.829 | 0.862 | 0.76 | 0.967 | 0.812 | 0.461 | 0.34 | 0.068 | 0.0829 | 0.734 | 0.55 | – | 0.598 | 0.168 | 0.663 |
| NCI-H441 | 0.567 | 0.651 | 0.487 | 0.288 | 0.629 | 0.642 | 0.719 | 0.867 | 0.673 | 0.509 | 0.521 | 0.316 | 0.266 | 0.183 | 0.88 | 1.02 | 0.615 | 0.889 | 0.778 | 0.543 |
| LCLC-103H | 1.14 | 1.16 | 0.895 | 1.21 | 1.12 | 1.12 | 1.08 | 1.13 | 1.04 | 1.08 | 0.655 | 0.521 | 0.544 | 0.345 | 0.81 | 0.867 | 0.681 | 1.02 | 0.798 | 0.676 |
| LCLC-97TM1 | 0.176 | 0.205 | 0.168 | – | 0.212 | 0.436 | 0.422 | 0.286 | – | 0.436 | 0.145 | 0.142 | 0.128 | 0.103 | 0.953 | 1.02 | 1 | – | 0.975 | – |
| NCI-H727 | 0.351 | 0.276 | 0.321 | 0.342 | 0.129 | 0.695 | 0.835 | 0.692 | 0.767 | 0.703 | 0.368 | 0.35 | 0.237 | 0.238 | 0.96 | 1.14 | 0.949 | 0.722 | 0.837 | 0.384 |
| NCI-H1355 | 0.859 | 0.845 | 0.893 | 0.838 | 0.787 | 1.06 | 1.24 | 1.04 | 1.07 | 1.09 | 0.404 | 0.327 | 0.196 | 0.206 | 1.03 | 1.01 | 1.01 | 0.943 | 0.95 | 0.619 |
| HOP-62 | 1.08 | 0.813 | 0.922 | 0.858 | 0.997 | 0.996 | 0.901 | 0.858 | 0.624 | 1.09 | 0.804 | 0.346 | 0.237 | 0.0877 | 1.09 | 1.14 | 1.08 | 1.01 | 1.04 | 0.958 |
| NCI-H2085 | 0.923 | 1.03 | 0.911 | 0.952 | 0.864 | 0.908 | 0.951 | 0.833 | 0.785 | 0.555 | 0.422 | 0.424 | 0.309 | 0.303 | 0.961 | 1.07 | 0.92 | 0.864 | 0.826 | 0.404 |

From the supplement of paper PMC10307832
